Legend:
Meloidogyne incognita = assay: Meloidogyne test (nematicidal action, gall formation on lettuce roots); type: in vivo; settings: 20 ppm active compound; 100% = no galls found, 0% = galls as untreated control; lettuce in sand
Protocol: To produce a suitable preparation of active compound, 1 part by weight of active compound is mixed with the stated amounts of solvent and emulsifier, and the concentrate is diluted with water to the desired concentration.
Containers are filled with sand, solution of active compound, Meloidogyne incognita egg larvae suspension and lettuce seeds. The lettuce seeds germinate and the plants develop. On the roots, galls are formed.
After the desired period of time, the nematicidal action is determined in % using gall formation as a measure. 100% means that no galls were found; 0% means that the number of galls on the treated plants corresponds to that of the untreated control.

[1] = system: Adults of Ctenocephalides felis; assay: Test with cat fleas / oral uptake; type: in vivo; settings: 100 ppm in citrated cattle blood, mortality after 24 h, strain "Georgi", at least 25% kill judged effective, read-out: % action (mortality of larvae)
Protocol: Test with Cat Fleas/Oral Uptake
To produce a suitable preparation, a suitable solution of active compound is prepared from 20 mg of active compound and 1 ml of DMSO. 20 μl of this formulation are added to 4 ml of citrated cattle blood and stirred.
20 unfed adult fleas (Ctenocephalides felis, strain “Georgi”) are placed into a chamber (Ø 5 cm) whose top and bottom are closed with gauze. A metal cylinder whose underside is covered with parafilm is placed onto the chamber. The cylinder contains the 4 ml of blood/active compound formulation which can be taken up by the fleas through the parafilm membrane. Whereas the blood is warmed to 37° C., the temperature in the area of the flea chambers is adjusted to 25° C. Controls are mixed with the same volume of DMSO, without addition of a compound. The determinations are carried out triplicate.
After 24 h, the mortality in % is determined.
Compounds which effect an at least 25% kill of the fleas within 24 h are judged to be effective.

| Structure (SMILES) | Kill rate in % after 14 days (Meloidogyne incognita) | mortality at 100 ppm [1] |
| --- | --- | --- |
| CN(Cc1ccc(Cl)nc1)C1=N/C(=N/C#N)SC1 [drawing 50] | 98% | – |
| CN(Cc1ccc(Cl)nc1)C1=N/C(=N/C#N)SC1 [Example I-1, 4-(N-(6-chloro-3-pyridylmethyl)-N-methyl)amino-2-cyanimino-2,5-dihydro-[1,3]-thiazoline] | – | 30% |

— patent publication US7417150B2, “Azoles having an insecticidal action” (Bayer CropScience AG, priority 2001, dated 2008)
